The values that follow come from patent publication US6855730B2, “3-methylidenyl-2-indolinone modulators of protein kinase” (Sugen, Inc., priority 1998, dated 2005).

Molecules are shown by their SMILES. pIC50: −log10 of the molar value.

Test [1] concerns the target Myc-GyrB-FGFR fusion protein (Homo sapiens, UniProt P11362). Nature of the test: Biochemical FGFR assay (ELISA). Particulars: read-out: bio fgfR1 IC50. A general note: An ELISA detects its analyte on a solid surface through an enzyme-linked reagent.
Experimental: This assay measures in vitro kinase activity of the Myc-GyrB-FGFR fusion protein using ELISA.
Materials and Reagents • 1. HNTG
PBS (Dulbecco's Phosphate-Buffered Saline, Gibco Catalog # 450-1300EB). • 3. Blocking Buffer. • 4. Kinase Buffer.
Working solution: 100 mM in ethanol. • 6.
ABTS Solution. • 10. Hydrogen peroxide 30% solution ( Fisher Catalog # H325). • 11. ABTS/H2O2. • 12. 0.2 M HCl. • 13.
Prepare 1.0 mM solution in MilliQ H2O, adjust pH to 7.2 with HCl. • 14.
Prepare 5 M solution in MilliQ H2O. • 15. MgCl, (Fisher Cat. No. M33-500).
Prepare 1 M solution in MilliQ H2O. • 16. HEPES (Fisher Cat. No. BP310-500).
Prepare 1 M solution in MilliQ H2O, adjust pH to 7.5, sterile filter. • 17. TBST Buffer. • 18. Sodium Carbonate Buffer (Fisher Cat. No. S495).
Prepare 0.1 M solution in MilliQ H2O, adjust pH to 9.6 with NaOH, filter. • 19. Dithiothreitol (DTT, Fisher Cat. No. BP172-25).
Prepare 0.5 mM working solution in MilliQ H2O just prior to-use. Store at −20° C. until used, discard any leftover. • 20. MnCl2. • 21. Triton X-100. • 22. Goat α-Rabbit IgG (Cappel). • 23. Affinity purified Rabbit α GST GyrB (Biochemistry Lab. SUGEN, Inc.).
All of the following steps are conducted at room temperature unless otherwise indicated. • 1. Coat Corning 96-well ELISA plates with 2 μg Goat α-Rabbit antibody per well in Carbonate Buffer such that total well volume is 100 μl. Store overnight at 40° C. • 2. Remove unbound Goat a-Rabbit antibody by inverting plate to remove liquid. Pat plate on a paper towel to remove excess liquid and bubbles • 3.. Add 150 μl Blocking Buffer (5% Low Fat Milk in PBS) to each well. Incubate while shaking on a micro-titer plate shaker for 30 min. • 4. Wash 4× with TBST. Pat plate on a paper towel to remove excess liquid and bubbles. • 5. Add 0.5 μg Rabbit α-GyrB antibody per well. Dilute antibody in DPBS to a final volume of 100 μl per well. Incubate with shaking on a micro-titer plate shaker at room temperature for 1 hour. • 6. Wash 4× with TBST as described in step 4. • 7. Add 2 μg COS/FGFR cell lysate (Myc-GyrB-FGFR source) in HNTG to each well to give a final volume of 100 μl per well. Incubate with shaking on a micro-titer plate shaker for 1 hour. • 8. Wash 4× with TBST as described in step 4. • 9. Add 80 μl of 1× kinase buffer per well. • 10. […] Transfer 10 μ l of diluted test compound solution and control wells from polypropylene plate wells to the corresponding ELISA plate wells, incubate with shaking on a micro-titer plate shaker for 20 minutes. • 12. Add 10 μl of 70 μM ATP diluted in kinase buffer to positive control and test wells (Final ATP concentration is 7 EM/well). Add 10 μl 1× kinase buffer to negative control wells. Incubate with shaking on a micro-titer plate shaker for 15 min. • 13. Stop kinase reaction by adding 5 μl 0.5 M EDTA to all wells. • 14. Wash 4× with TBST as described in step 4. • 15. Add 100 μl biotin conjugated α-phosphotyrosine mab (b4G10) diluted in TBST to each well. Incubate with shaking on a micro-titer plate shaker for 30 minutes. • 16. Prepare Vectastain ABC reagent. […] Mix by inverting tube several times. Add 1 drop reagent B and mix again. • 17. Wash 4× with TBST as described in step 4. • 18. Add 100 μl ABC HRP reagent to each well. Incubate with shaking on a micro-titer plate shaker for 30 minutes. • 19. Wash 4× with TBST as described in step 4. • 20. Add 100 μl of ABTS/H2O2 solution to each well. • 22. Incubate 5 to 15 minutes with shaking. Remove any bubbles. • 23. If necessary stop reaction by adding 1 00 μl of 0.2M HCl/well. • 24.
The next test has as its target T1, flkGST (Homo sapiens, UniProt P35968).
T1 construct: GST
Kind of test: bio flkGST assay. The test is classed as biochemical.

The target of the next test is EGFR (Homo sapiens, UniProt P00533). Kind of test: Biochemical EGFR assay (ELISA, A431 cell lysate). Also on record: A431 cell lysate (Screening Lab, SUGEN, Inc.); host or cells: A431. The conditions noted are these: read-out: bio EGFr IC50. How it is done:
This assay measures the in vitro kinase activity of EGFR using ELISA.
Materials and Reagents • 1. […] SUMO1 monoclonal anti-EGFR antibody (Biochemistry Lab, SUGEN, Inc.). • 3. PBS (Dulbecco's Phosphate-Buffered Saline, Gibco Catalog No. 450-1300EB). • 4. TBST Buffer
• 6. A431 cell lysate (Screening Lab, SUGEN, Inc.) • 7. TBS Buffer:
Prepare a 1.0 mM solution in dH2O. This reagent should be made up immediately prior to use and kept on ice. • 10. MnCl2.
Prepare a 1.0 M stock solution in dH2O. • 11. ATP/MnCl2 phosphorylation mix
This reagent should be prepared immediately before use and kept on ice. • 12. NUNC 96-well V bottom polypropylene plates (Applied Scientific Cat. No. AS-72092). • 13. Ethylenediaminetetraacetic acid (EDTA)
Prepare 200 mM working solution in dH2O. Adjust to pH 8.0 with 10 N NaOH. • 14. Rabbit polyclonal anti-phosphotyrosine serum (Biochemistry Lab, SUGEN, Inc.) • 15. Goat anti-rabbit IgG peroxidase conjugate (Biosource Cat. No. ALI0404) • 16. ABTS (2,2′-azino-bis(3-ethylbenzthiazoline-6-sulfonic acid), Sigma Cat. No. A-1888).
Mix first two ingredients in about 900 ml dH2O, adjust pH to 4.0 with phosphoric acid. Add ABTS, cover, let sit about 0.5 hr., filter. The solution should be kept in the dark at 4° C. until ready to use. • 17. Hydrogen peroxide 30% solution (Fisher Cat. No. H325) • 18. ABTS/H2O2 • Mix 15 ml ABTS solution and 2.0 μl H2O2. Prepare 5 minutes before use. • 19. 0.2 M HCl
Procedure • 1. Coat Corning 96 well ELISA plates with 0.5 μg SUMO1 in 100 μl PBS per well, store overnight at 4° C. • 2. Remove unbound SUMO1 from wells by inverting plate to remove liquid., Wash 1× with dH2O. Pat the plate on a paper towel to remove excess liquid. • 3. Add 150 μl of Blocking Buffer to each well. Incubate for 30 min. at room temperature with shaking. • 4. Wash plate 3× with deionized water, then once with TBST. Pat plate on a paper towel to remove excess liquid and bubbles. • 5. Dilute lysate in PBS (7 μg lysate/100 μl PBS). • 6. Add 100 μl of diluted lysate to each well. Shake at room temperature for 60 min. • 7. Wash plates as described in 4, above. • 8. Add 120 μl TBS to ELISA plate containing captured EGFR. • 9. Dilute test compound 1:10 in TBS in 96-well polypropylene plates (i.e. 10 μl compound+90 μl TBS). • 10. Add 13.5 μl diluted test compound to ELISA plate. […] Incubate for 30 minutes while shaking at room temperature. • 12. […] After 5 minutes, stop reaction by adding 16.5 μl of 200 mM EDTA (pH 8.0) to each well, shaking continuously. After the EDTA has been added, shake for 1 min. • 14. Wash 4× with deionized water, twice with TBST. • 15. Add 100 μl anti-phosphotyrosine (1:3000 dilution in TBST) per well. Incubate 30-45 min. at room temperature, with shaking. • 16. Wash as described in 4, above. • 17. Add 100 μl Biosource Goat anti-rabbit IgG peroxidase conjugate (1:2000 dilution in TBST) to each well. Incubate 30 min. at room temperature, with shaking. • 18. Wash as described in 4, above. • 19. Add 100 μl of ABTS/H2O2 solution to each well. • 20. Incubate 5 to 10 minutes with shaking. Remove any bubbles. • 21. If necessary stop reaction with the addition of 100 μl 1 0.2 M HCl per well. • 22. Read assay on Dynatech MR7000 ELISA reader. Test Filter: 410 nM Reference Filter: 630 Nm.

The next test addresses T2, PDGFR-β (Homo sapiens, UniProt P09619).
T2 construct: host or cells: NIH 3T3
Nature of the test: Biochemical PDGFR assay (ELISA, PDGFR-β expressing NIH 3T3 cell lysate). Particulars: read-out: bio PDGF IC50. An outline of the steps:
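Phosphorylation was read by ELISA (anti-phosphotyrosine serum, peroxidase secondary, ABTS at 410 nm) after a 30 min room-temperature reaction with 20 μM ATP, EDTA-stopped. Kinase was lysate-derived PDGFR-β (NIH 3T3) immobilised via 28D4C10 antibody, compound added 30 min before ATP.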

The target of the next test is pyk2 (Homo sapiens, UniProt Q14289). Nature of the test: bio pyk2 assay. The class given is biochemical.
pyk2, sequence (Q14289 whole entry, species assumed): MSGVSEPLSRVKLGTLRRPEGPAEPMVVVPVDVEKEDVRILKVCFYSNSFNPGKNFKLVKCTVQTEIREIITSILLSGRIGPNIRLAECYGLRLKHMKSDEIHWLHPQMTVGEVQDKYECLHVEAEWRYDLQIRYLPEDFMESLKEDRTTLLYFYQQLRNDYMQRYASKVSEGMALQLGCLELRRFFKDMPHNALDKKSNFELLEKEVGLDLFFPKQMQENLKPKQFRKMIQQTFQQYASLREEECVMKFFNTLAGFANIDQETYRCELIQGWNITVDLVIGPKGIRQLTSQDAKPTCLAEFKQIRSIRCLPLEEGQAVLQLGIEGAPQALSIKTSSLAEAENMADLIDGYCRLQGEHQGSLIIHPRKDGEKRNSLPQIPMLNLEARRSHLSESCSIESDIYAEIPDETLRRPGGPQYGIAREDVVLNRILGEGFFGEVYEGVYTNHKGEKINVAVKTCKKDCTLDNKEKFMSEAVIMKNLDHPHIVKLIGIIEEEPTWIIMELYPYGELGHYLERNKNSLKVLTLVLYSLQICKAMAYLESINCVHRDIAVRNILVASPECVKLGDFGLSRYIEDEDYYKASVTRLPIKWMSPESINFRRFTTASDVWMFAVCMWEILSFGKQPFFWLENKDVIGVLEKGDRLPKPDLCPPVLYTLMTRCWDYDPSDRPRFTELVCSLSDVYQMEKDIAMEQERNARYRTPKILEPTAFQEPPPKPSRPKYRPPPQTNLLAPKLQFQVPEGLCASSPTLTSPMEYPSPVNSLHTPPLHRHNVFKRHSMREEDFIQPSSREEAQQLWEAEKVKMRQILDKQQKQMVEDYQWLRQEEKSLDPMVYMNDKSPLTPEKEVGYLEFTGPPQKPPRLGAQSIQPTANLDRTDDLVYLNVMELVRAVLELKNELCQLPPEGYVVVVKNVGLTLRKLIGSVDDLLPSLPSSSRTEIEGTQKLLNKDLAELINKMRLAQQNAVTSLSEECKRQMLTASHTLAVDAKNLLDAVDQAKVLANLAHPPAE

Myc-GyrB-FGFR fusion protein, sequence (P11362 478-767 limits assumed): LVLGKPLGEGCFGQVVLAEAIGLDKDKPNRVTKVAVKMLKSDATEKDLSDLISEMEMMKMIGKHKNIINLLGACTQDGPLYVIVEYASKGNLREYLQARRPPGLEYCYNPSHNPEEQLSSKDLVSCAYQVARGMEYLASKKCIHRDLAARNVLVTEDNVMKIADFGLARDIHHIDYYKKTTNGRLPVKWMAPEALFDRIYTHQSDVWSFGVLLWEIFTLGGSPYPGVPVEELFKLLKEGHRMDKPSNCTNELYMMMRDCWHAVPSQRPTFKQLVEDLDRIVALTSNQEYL
EGFR, sequence (P00533 25-1210): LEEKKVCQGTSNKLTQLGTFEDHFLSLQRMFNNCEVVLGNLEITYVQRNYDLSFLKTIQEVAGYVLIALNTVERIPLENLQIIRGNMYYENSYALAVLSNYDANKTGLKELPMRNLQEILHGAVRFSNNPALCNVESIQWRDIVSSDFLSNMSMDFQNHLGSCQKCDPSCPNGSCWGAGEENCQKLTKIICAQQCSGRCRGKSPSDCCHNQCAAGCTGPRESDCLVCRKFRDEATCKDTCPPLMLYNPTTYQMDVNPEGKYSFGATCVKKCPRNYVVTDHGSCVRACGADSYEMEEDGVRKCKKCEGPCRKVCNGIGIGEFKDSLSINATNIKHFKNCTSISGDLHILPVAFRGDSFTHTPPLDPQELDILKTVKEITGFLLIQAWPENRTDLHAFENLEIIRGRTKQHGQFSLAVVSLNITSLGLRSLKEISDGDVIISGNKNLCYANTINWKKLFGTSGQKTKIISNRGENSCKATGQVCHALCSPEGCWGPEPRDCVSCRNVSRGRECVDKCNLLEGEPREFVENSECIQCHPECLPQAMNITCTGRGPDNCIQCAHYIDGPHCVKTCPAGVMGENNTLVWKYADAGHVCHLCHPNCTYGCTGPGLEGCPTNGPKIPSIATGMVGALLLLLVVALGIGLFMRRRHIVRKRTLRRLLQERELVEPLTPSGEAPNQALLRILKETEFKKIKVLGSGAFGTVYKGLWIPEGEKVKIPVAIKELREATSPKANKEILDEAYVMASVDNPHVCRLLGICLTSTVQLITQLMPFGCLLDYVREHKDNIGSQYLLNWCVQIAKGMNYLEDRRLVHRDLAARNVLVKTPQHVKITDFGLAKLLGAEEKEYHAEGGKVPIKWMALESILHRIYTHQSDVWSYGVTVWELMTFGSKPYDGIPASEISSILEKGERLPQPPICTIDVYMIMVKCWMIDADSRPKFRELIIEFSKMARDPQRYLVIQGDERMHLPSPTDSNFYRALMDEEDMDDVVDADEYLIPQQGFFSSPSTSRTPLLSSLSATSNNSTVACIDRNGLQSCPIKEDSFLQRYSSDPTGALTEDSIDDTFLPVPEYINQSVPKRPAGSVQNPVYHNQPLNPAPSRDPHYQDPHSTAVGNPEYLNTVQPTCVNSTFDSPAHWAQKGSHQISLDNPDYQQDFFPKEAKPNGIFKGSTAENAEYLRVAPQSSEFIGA
T2 sequence (P09619 33-1106): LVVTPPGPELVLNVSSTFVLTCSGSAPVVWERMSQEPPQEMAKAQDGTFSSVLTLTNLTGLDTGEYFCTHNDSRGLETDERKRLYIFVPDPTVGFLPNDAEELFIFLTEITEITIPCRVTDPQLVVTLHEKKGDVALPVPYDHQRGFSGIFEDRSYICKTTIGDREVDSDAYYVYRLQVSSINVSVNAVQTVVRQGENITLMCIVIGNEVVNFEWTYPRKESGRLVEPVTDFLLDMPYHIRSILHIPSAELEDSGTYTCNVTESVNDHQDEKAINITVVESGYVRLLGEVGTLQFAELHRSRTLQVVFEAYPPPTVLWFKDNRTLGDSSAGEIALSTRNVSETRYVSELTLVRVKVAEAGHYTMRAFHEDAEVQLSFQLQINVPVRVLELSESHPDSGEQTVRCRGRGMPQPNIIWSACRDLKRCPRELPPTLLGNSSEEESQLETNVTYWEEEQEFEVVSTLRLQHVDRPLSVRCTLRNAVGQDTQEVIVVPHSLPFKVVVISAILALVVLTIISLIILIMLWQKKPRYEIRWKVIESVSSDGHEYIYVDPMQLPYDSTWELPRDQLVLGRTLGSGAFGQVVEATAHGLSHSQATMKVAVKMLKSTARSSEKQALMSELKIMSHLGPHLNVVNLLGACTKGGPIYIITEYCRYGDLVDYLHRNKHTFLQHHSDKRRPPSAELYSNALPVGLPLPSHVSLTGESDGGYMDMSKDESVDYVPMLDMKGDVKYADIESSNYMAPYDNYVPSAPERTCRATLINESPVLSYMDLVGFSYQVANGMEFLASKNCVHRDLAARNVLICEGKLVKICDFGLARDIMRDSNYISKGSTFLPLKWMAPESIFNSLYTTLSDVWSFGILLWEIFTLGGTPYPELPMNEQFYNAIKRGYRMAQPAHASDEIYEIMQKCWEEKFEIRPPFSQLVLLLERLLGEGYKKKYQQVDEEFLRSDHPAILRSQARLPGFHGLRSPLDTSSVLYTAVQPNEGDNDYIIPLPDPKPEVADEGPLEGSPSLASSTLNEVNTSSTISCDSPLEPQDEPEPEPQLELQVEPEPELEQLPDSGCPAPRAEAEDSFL
T1 sequence (P35968 786-1356 limits assumed): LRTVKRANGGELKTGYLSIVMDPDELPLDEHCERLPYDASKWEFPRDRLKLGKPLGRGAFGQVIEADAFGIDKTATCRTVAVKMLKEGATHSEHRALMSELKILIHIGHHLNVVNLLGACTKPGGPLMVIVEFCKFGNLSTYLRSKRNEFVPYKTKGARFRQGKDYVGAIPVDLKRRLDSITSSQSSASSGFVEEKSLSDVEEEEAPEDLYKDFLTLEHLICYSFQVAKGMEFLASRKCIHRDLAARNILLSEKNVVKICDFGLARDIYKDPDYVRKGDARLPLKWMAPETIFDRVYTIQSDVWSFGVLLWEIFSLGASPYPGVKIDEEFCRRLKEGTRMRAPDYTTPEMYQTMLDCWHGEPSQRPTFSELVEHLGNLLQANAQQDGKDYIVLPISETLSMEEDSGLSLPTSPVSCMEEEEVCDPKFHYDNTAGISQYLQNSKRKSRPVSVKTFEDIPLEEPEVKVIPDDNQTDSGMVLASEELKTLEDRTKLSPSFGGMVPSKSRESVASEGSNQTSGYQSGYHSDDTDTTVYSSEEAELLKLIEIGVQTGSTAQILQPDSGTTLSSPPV

As to `CCOC(=O)c1c(C)[nH]c(/C=C2\C(=O)Nc3ccc(Cl)cc32)c1CCC(=O)O` [Example 112, 4-(2-Carboxyethyl)-5-(5-chloro-2-oxo-1,2-dihydroindol-3-ylidenemethyl)-2-methyl-1H-pyrrole-3-carboxylic acid ethyl ester], the pIC50 in test [1] was less than 4.70; at flkGST, 5.63; on EGFR, less than 4.00; at PDGFR-β, 7.70.
For the molecule `CCOC(=O)c1c(C)[nH]c(/C=C2\C(=O)Nc3ccc(S(=O)(=O)NC)cc32)c1CCCN1CCOCC1` [Example 118, 2-Methyl-5-(5-methylsulfamoyl-2-oxo-1,2-dihydroindol-3-ylidenemethyl)-4-(3-morpholin-4-ylpropyl)-1H-pyrrole-3-carboxylic acid ethyl ester], the results for the pIC50 at pyk2, against flkGST and at PDGFR-β were 5.37, 5.03 and less than 4.00, respectively.
On the same counts, the results for `CCOC(=O)c1c(C)[nH]c(/C=C2\C(=O)Nc3ccc(S(=O)(=O)NC)cc32)c1CCCN1CCN(C)CC1` [Example 119, 2-Methyl-4-[3-(4-methylpiperazin-1-yl)-propyl]-5-(5-methylsulfamoyl-2-oxo-1,2-dihydroindol-3-ylidenemethyl)-1H-pyrrole-3-carboxylic acid ethyl ester] are 5.69, 5.20 and less than 4.00.
On to `CCOC(=O)c1c(C)[nH]c(/C=C2\C(=O)Nc3cccc(CCO)c32)c1CCCN1CCOCC1` [Example 131, 5-[4-(2-Hydroxyethyl)-2-oxo-1,2-dihydroindol-3-ylidenemethyl]-2-methyl-4-(3-morpholin-4-ylpropyl)-1H-pyrrole-3-carboxylic acid ethyl ester], for which the pIC50 on pyk2 is 5.66; on PDGFR-β, 4.63.
Consider `CCOC(=O)c1c(C)[nH]c(/C=C2\C(=O)Nc3cccc(CCO)c32)c1CCCN1CCCC1` [Example 132, 5-[4-(2-Hydroxyethyl)-2-oxo-1,2-dihydroindol-3-ylidenemethyl]-2-methyl-4-(3-pyrrolidin-1-ylpropyl)-1H-pyrrole-3-carboxylic acid ethyl ester], for which the pIC50 on pyk2 is 6.66; at PDGFR-β, 6.19.
As to `CCOC(=O)c1[nH]c(/C=C2\C(=O)Nc3cccc(C)c32)c(CCC(=O)O)c1C` [Example 139, 4-(2-Carboxyethyl)-3-methyl-5-(4-methyl-2-oxo-1,2-dihydroindol-3-ylidenemethyl)-1H-pyrrole-2-carboxylic acid ethyl ester], the pIC50 in test [1] was 4.90; against flkGST, 5.12; on EGFR it was less than 4.00; at PDGFR-β, less than 4.00.
In the case of `CCOC(=O)c1[nH]c(/C=C2\C(=O)Nc3ccc(OC)cc32)c(CCC(=O)O)c1C` [Example 140, 4-(2-Carboxyethyl)-5-(5-methoxy-2-oxo-1,2-dihydroindol-3-ylidenemethyl)-3-methyl-1H-pyrrole-2-carboxylic acid ethyl ester], the pIC50 is 4.89 in test [1], 5.18 against flkGST, less than 4.00 at EGFR and less than 4.00 at PDGFR-β.
For the molecule `CCOC(=O)c1[nH]c(/C=C2\C(=O)Nc3cc(OC)ccc32)c(CCC(=O)O)c1C` [Example 141, 4-(2-Carboxyethyl)-5-(6-methoxy-2-oxo-1,2-dihydroindol-3-ylidenemethyl)-3-methyl-1H-pyrrole-2-carboxylic acid ethyl ester], the pIC50 in test [1] was 5.08; against flkGST, 4.94; on EGFR, less than 4.00; at PDGFR-β, 4.07.
For the molecule `CCOC(=O)c1[nH]c(/C=C2\C(=O)Nc3cc(Br)ccc32)c(CCC(=O)O)c1C` [Example 142, 5-(6-Bromo-2-oxo-1,2-dihydroindol-3-ylidenemethyl)-4-(2-carboxy-ethyl)-3-methyl-1H-pyrrole-2-carboxylic acid ethyl ester], the pIC50 in test [1] is 5.23; against flkGST, 4.67; on EGFR it was less than 4.00; on PDGFR-β, less than 4.00.
`CCOC(=O)c1[nH]c(/C=C2\C(=O)Nc3ccc(Br)cc32)c(CCC(=O)O)c1C` [Example 143, 5-(5-Bromo-2-oxo-1,2-dihydroindol-3-ylidenemethyl)-4-(2-carboxy-ethyl)-3-methyl-1H-pyrrole-2-carboxylic acid ethyl ester]: the pIC50 was 4.78 in test [1], 4.57 against flkGST, less than 4.00 on EGFR and less than 4.00 at PDGFR-β.
As for `CCOC(=O)c1[nH]c(/C=C2\C(=O)Nc3cc(-c4ccccc4)ccc32)c(CCC(=O)O)c1C` [Example 144, 4-(2-Carboxyethyl)-3-methyl-5-(2-oxo-6-phenyl-1,2-dihydroindol-3-ylidenemethyl)-1H-pyrrole-2-carboxylic acid ethyl ester], the pIC50 in test [1] was 5.56; on flkGST, 5.04; on EGFR, less than 4.00; on PDGFR-β, less than 4.00.
For the molecule `CCOC(=O)c1[nH]c(C=C2C(=O)Nc3ccc(S(N)(=O)=O)cc32)c(CCC(=O)O)c1C` [Example 145, 4-(2-Carboxyethyl)-3-methyl-5-(2-oxo-5-sulfamoyl-1,2-dihydro-indol-3-ylidenemethyl)-1H-pyrrole-2-carboxylic acid ethyl ester], the pIC50 in test [1] is 4.81; on flkGST, 4.93; on EGFR it was less than 4.00; at PDGFR-β, less than 4.00.
With `CCOC(=O)c1[nH]c(/C=C2\C(=O)Nc3ccc(S(=O)(=O)NC)cc32)c(CCC(=O)O)c1C` [Example 146], the pIC50 in test [1] is less than 4.70; against flkGST it was 4.81; at EGFR, less than 4.00; on PDGFR-β it was less than 4.00.
For the molecule `CCOC(=O)c1[nH]c(/C=C2\C(=O)Nc3ccc(S(=O)(=O)N(C)C)cc32)c(CCC(=O)O)c1C` [Example 147, 4-(2-Carboxyethyl)-5-(5-dimethylsulfamoyl-2-oxo-1,2-dihydro-indol-3-ylidenemethyl)-3-methyl-1H-pyrrole-2-carboxylic acid ethyl ester], the pIC50 is less than 4.70 in test [1], 4.82 at flkGST, less than 4.00 at EGFR and less than 4.00 at PDGFR-β.
In the case of `CCOC(=O)c1[nH]c(/C=C2\C(=O)Nc3ccc(S(=O)(=O)NC(C)C)cc32)c(CCC(=O)O)c1C` [Example 148, 4-(2-Carboxyethyl)-5-(5-isopropylsulfamoyl-2-oxo-1,2-dihydro-indol-3-ylidenemethyl)-3-methyl-1H-pyrrole-2-carboxylic acid ethyl ester], the pIC50 in test [1] is less than 4.70; on flkGST, 4.62; at EGFR it was less than 4.00; at PDGFR-β, less than 4.00.

One may read the pIC50 as −log10 of the IC50, conventionally taken in molar units.
